Assay results published in patent US20240158446A1, “CYCLIC COMPOUND HAVING SELECTIVE INHIBITORY ACTION ON KRAS OVER HRAS AND NRAS” (CHUGAI SEIYAKU KABUSHIKI KAISHA, priority 2021, published 2024).
Where two headings read alike, the source gives them in different places. Where a SMILES comes first, the peptide text is derived from it. Bridges are numbered along the chain shown (N, C = ends). [ ]: non-standard residue; d: D form. hPhe(3-Cl-4-CF3) = N[C@@H](CCc1ccc(C(F)(F)F)c(Cl)c1)C(=O)O; NPrPhe(4-CF3) = CCCN[C@@H](Cc1ccc(C(F)(F)F)cc1)C(=O)O; NMeGly(cPent) = CN[C@H](C(=O)O)C1CCCC1; Hyp = O=C(O)[C@@H]1C[C@@H](O)CN1; NMeD = CN[C@@H](CC(=O)O)C(=O)O; NMeL = CN[C@@H](CC(C)C)C(=O)O; Ac5c = NC1(C(=O)O)CCCC1; Sar = CNCC(=O)O

Key:
[1] = target: GDP-bound HRAS wild-type protein (Homo sapiens, UniProt P01112); assay: Binding to HRAS by surface plasmon resonance (SPR), Single Cycle Kinetics; conditions: for HRAS/KRAS (ratio of KD value for HRAS to KD value for KRAS) / HRAS/KRAS (ratio of KD value with respect to HRAS to KD value with respect to KRAS): SPR, GDP-bound HRAS wild-type protein vs GDP-bound KRAS wild-type protein; for HRAS/KRAS (ratio of KD value with respect to GDP-bound HRAS wild-type protein to KD value with respect to KRAS): SPR KD ratio HRAS/KRAS, class symbols
Chain of GDP-bound HRAS wild-type protein (P01112 whole entry): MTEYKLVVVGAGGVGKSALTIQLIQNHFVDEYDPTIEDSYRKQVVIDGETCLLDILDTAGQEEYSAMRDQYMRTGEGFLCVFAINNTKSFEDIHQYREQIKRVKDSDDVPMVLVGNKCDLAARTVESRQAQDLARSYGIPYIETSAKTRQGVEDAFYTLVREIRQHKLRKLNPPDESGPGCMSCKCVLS

[2] = target: GDP-bound NRAS wild-type protein (Homo sapiens, UniProt P01111); assay: Binding to NRAS by surface plasmon resonance (SPR), Single Cycle Kinetics; conditions: for NRAS/KRAS (ratio of KD value for NRAS to KD value for KRAS) / NRAS/KRAS (ratio of KD value with respect to NRAS to KD value with respect to KRAS): SPR, GDP-bound NRAS wild-type protein vs GDP-bound KRAS wild-type protein; for NRAS/KRAS (ratio of KD value with respect to GDP-bound NRAS wild-type protein to KD value with respect to KRAS): SPR KD ratio NRAS/KRAS, class symbols
Chain of GDP-bound NRAS wild-type protein (P01111 whole entry): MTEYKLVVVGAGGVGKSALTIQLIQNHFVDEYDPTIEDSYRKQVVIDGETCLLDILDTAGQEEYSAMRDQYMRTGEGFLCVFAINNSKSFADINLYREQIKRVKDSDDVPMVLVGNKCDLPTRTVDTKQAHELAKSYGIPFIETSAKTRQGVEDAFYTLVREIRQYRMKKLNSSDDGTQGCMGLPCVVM

[3] = target: GDP-bound KRAS wild-type protein (Homo sapiens, UniProt P01116); assay: Binding to KRAS by surface plasmon resonance (SPR), Single Cycle Kinetics; conditions: GDP-bound KRAS wild-type protein, read-out: KRAS KD
Chain of GDP-bound KRAS wild-type protein (P01116 whole entry): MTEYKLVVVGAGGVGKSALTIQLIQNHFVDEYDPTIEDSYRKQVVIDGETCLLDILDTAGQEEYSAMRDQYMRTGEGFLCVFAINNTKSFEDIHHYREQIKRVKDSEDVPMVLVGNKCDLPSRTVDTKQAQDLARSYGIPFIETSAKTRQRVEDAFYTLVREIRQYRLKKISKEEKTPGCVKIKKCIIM

[4] = SPR Single Cycle Kinetics, 1:1 binding model

CCO[C@@H]1C[C@H]2C(=O)NC3(CCC3)C(=O)N(C)[C@@H](C3CCCC3)C(=O)N(C)[C@H](C(=O)N3CCOCC3)CC(=O)N(C)[C@@H](CC)C(=O)N[C@@H]([C@@H](C)CC)C(=O)N(C)CC(=O)N(C)[C@H]3C[C@@H](C)CCN(C3=O)[C@@H](Cc3ccc(C(F)(F)F)cc3)C(=O)N(C)CC(=O)N[C@@H](CCc3cc(F)c(C(F)(F)F)c(F)c3)C(=O)N2C1 [PP1027]
HRAS/KRAS (ratio of KD value for HRAS to KD value for KRAS) [1]: B (a compound having 3 or more and less than 10 is denoted as B)
NRAS/KRAS (ratio of KD value for NRAS to KD value for KRAS) [2]: C (A compound having a KD ratio of 0.1 or more and less than 3 is denoted as C)
Kd ([3]; SPR, Single Cycle Kinetics): 0.056 nM

C#CC[C@H]1C(=O)N[C@@H]([C@@H](C)CC)C(=O)N(C)CC(=O)N(C)[C@H]2C/C=C\CCN(C2=O)[C@@H](Cc2ccc(C(F)(F)F)cc2)C(=O)N(C)CC(=O)N[C@@H](CCc2ccc(C(F)(F)F)c(OC)c2)C(=O)N2C[C@@H](C)C[C@H]2C(=O)NC2(CC(C)(C)C2)C(=O)N(C)[C@@H](C2CCCC2)C(=O)N(C)[C@H](C(=O)N(C)CC)CC(=O)N1C [PP2055]
HRAS/KRAS (ratio of KD value for HRAS to KD value for KRAS) [1]: B (a compound having 3 or more and less than 10 is denoted as B)
NRAS/KRAS (ratio of KD value for NRAS to KD value for KRAS) [2]: A (a compound having 10 or more and less than 20 is denoted as A)
Kd ([3]; SPR, Single Cycle Kinetics): 0.18 nM

CCC[C@H]1C(=O)N[C@@H]([C@@H](C)CC)C(=O)N(C)CC(=O)N(C)[C@H]2C/C=C\CCN(C2=O)[C@@H](Cc2ccc(C)cc2)C(=O)N(C)CC(=O)N[C@@H](CCc2ccc(C(F)(F)F)c(Cl)c2)C(=O)N2C[C@H](CC)C[C@H]2C(=O)NC2(CC(C)(C)C2)C(=O)N(C)[C@@H](C2CCCC2)C(=O)N(C)[C@H](C(=O)N(C)C)CC(=O)N1C [PP2212]
HRAS/KRAS (ratio of KD value for HRAS to KD value for KRAS) [1]: B (a compound having 3 or more and less than 10 is denoted as B)
NRAS/KRAS (ratio of KD value for NRAS to KD value for KRAS) [2]: A (a compound having 10 or more and less than 20 is denoted as A)
Kd ([3]; SPR, Single Cycle Kinetics): 0.34 nM

CC[C@H](C)[C@@H]1NC(=O)[C@H](CC(C)C)N(C)C(=O)C[C@@H](C(=O)N2CCOCC2)N(C)C(=O)[C@H](C2CCCC2)N(C)C(=O)C2(CC2)NC(=O)[C@@H]2CCCN2C(=O)[C@H](CCc2cc(F)c(C(F)(F)F)c(F)c2)NC(=O)CN(C)C(=O)[C@H](Cc2ccc(C(F)(F)F)cc2)N2CCCC[C@@H](C2=O)N(C)C(=O)CN(C)C1=O [PP0559]
HRAS/KRAS (ratio of KD value with respect to HRAS to KD value with respect to KRAS) [1]: B (a compound having 3 or more and less than 10 is denoted as B)
NRAS/KRAS (ratio of KD value with respect to NRAS to KD value with respect to KRAS) [2]: B (a compound having 3 or more and less than 10 is denoted as B)
Kd [3, 4]: 0.16 nM

CC[C@H](C)[C@@H]1NC(=O)[C@H](CC(C)C)N(C)C(=O)C[C@@H](C(=O)N2CCOCC2)N(C)C(=O)[C@H](C2CCCC2)N(C)C(=O)C2(CCCC2)NC(=O)[C@@H]2CCCN2C(=O)[C@H](CCc2ccc(C(F)(F)F)c(Cl)c2)NC(=O)CN(C)C(=O)[C@H](Cc2ccc(C(F)(F)F)cc2)N2CC/C=C\C[C@@H](C2=O)N(C)C(=O)CN(C)C1=O [PP0463]
HRAS/KRAS (ratio of KD value with respect to HRAS to KD value with respect to KRAS) [1]: A (a compound having 10 or more and less than 20 is denoted as A)
NRAS/KRAS (ratio of KD value with respect to NRAS to KD value with respect to KRAS) [2]: A (a compound having 10 or more and less than 20 is denoted as A)
Kd [3, 4]: 0.54 nM

CCCN1C(=O)CN(C)C(=O)CNC(=O)[C@H]([C@@H](C)CC)NC(=O)[C@H](CC(C)C)N(C)C(=O)C[C@@H](C(=O)N(C)C)N(C)C(=O)[C@H](C2CCCC2)N(C)C(=O)C2(CCCC2)NC(=O)[C@@H]2C[C@@H](OCC)CN2C(=O)[C@H](CCc2ccc(C(F)(F)F)c(Cl)c2)NC(=O)CN(C)C(=O)[C@@H]1Cc1ccc(C(F)(F)F)cc1 [PP0421] ([NMeL]IG[Sar][NPrPhe(4-CF3)][Sar][hPhe(3-Cl-4-CF3)][Hyp](Et)[Ac5c][NMeGly(cPent)][NMeD]-NMe2; lactam N-11)
HRAS/KRAS (ratio of KD value with respect to HRAS to KD value with respect to KRAS) [1]: C (A compound having a KD ratio of 0.1 or more and less than 3 is denoted as C)
NRAS/KRAS (ratio of KD value with respect to NRAS to KD value with respect to KRAS) [2]: B (a compound having 3 or more and less than 10 is denoted as B)
Kd [3, 4]: 0.033 nM

CCO[C@@H]1C[C@H]2C(=O)NC3(CCC3)C(=O)N(C)[C@@H](C3CCCC3)C(=O)N(C)[C@H](C(=O)N(C)C)CC(=O)N(C)[C@@H](CC3CCCC3)C(=O)N[C@@H]([C@@H](C)CC)C(=O)N(C)CC(=O)N(C)[C@H]3C/C=C\CCN(C3=O)[C@@H](Cc3ccc(C)cc3)C(=O)N(C)CC(=O)N[C@@H](CCc3cc(C)c(C(F)F)c(Cl)c3)C(=O)N2C1 [PP2677]
HRAS/KRAS (ratio of KD value with respect to GDP-bound HRAS wild-type protein to KD value with respect to KRAS) [1]: A (a compound having 10 or more and less than 20 is denoted as A)
NRAS/KRAS (ratio of KD value with respect to GDP-bound NRAS wild-type protein to KD value with respect to KRAS) [2]: A (a compound having 10 or more and less than 20 is denoted as A)
Kd [3, 4]: 1.3 nM

CC[C@H](C)[C@@H]1NC(=O)[C@H](CC(C)C)N(C)C(=O)C[C@@H](C(=O)N2CCOCC2)N(CC)C(=O)[C@H](C2CCCC2)N(C)C(=O)C2(CCCC2)NC(=O)[C@@H]2CCCN2C(=O)[C@H](CCc2cc(F)c(C(F)(F)F)c(F)c2)NC(=O)CN(C)C(=O)[C@H](Cc2ccc(C(F)(F)F)cc2)N2CCCC[C@@H](C2=O)N(C)C(=O)CN(C)C1=O [PP0539]
HRAS/KRAS (ratio of KD value with respect to HRAS to KD value with respect to KRAS) [1]: B (a compound having 3 or more and less than 10 is denoted as B)
NRAS/KRAS (ratio of KD value with respect to NRAS to KD value with respect to KRAS) [2]: B (a compound having 3 or more and less than 10 is denoted as B)
Kd [3, 4]: 0.17 nM

CCO[C@@H]1C[C@H]2C(=O)NC3(CC(C)(C)C3)C(=O)N(C)[C@@H](C3CCCC3)C(=O)N(C)[C@H](C(=O)N(C)C)CC(=O)N(C)[C@@H](CC(F)(F)F)C(=O)N[C@@H]([C@@H](C)CC)C(=O)N(C)CC(=O)N(C)[C@H]3C/C=C\CCN(C3=O)[C@@H](Cc3ccc(C(F)(F)F)cc3)C(=O)N(C)CC(=O)N[C@@H](CCc3ccc(C(F)(F)F)c(Cl)c3)C(=O)N2C1 [PP2833]
HRAS/KRAS (ratio of KD value with respect to GDP-bound HRAS wild-type protein to KD value with respect to KRAS) [1]: A (a compound having 10 or more and less than 20 is denoted as A)
NRAS/KRAS (ratio of KD value with respect to GDP-bound NRAS wild-type protein to KD value with respect to KRAS) [2]: A (a compound having 10 or more and less than 20 is denoted as A)
Kd [3, 4]: 0.052 nM

CCO[C@@H]1C[C@H]2C(=O)NC3(CCC3)C(=O)N(C)[C@@H](C3CCCC3)C(=O)N(C)[C@H](C(=O)N(C)C)CC(=O)N(C)[C@@H](CC3CC3)C(=O)N[C@@H]([C@@H](C)CC)C(=O)N(C)CC(=O)N(C)[C@H]3CCCCCN(C3=O)[C@@H](Cc3ccc(C(F)(F)F)cc3)C(=O)N(C)CC(=O)N[C@@H](CCc3cc(F)c(C(F)(F)F)c(F)c3)C(=O)N2C1 [PP0667]
HRAS/KRAS (ratio of KD value with respect to HRAS to KD value with respect to KRAS) [1]: B (a compound having 3 or more and less than 10 is denoted as B)
NRAS/KRAS (ratio of KD value with respect to NRAS to KD value with respect to KRAS) [2]: B (a compound having 3 or more and less than 10 is denoted as B)
Kd [3, 4]: 0.27 nM
